# According to patent US11696922B2, “Nanoparticle to target cancer” (Georgetown University, priority 2016, dated 2023):
# Tested on: gastrin mRNA
# Assay: Gastrin mRNA decrease by gastrin siRNA si286
# Format: cell-based
sequence,measurement,value
"GUGCUGAGGAUGAGAACUA (listed as RNA, chemistry not given here) [si286]",decrease of gastrin mRNA,90%
